Measurements published in article PMC5318888, “SAMHD1 enhances nucleoside-analogue efficacy against HIV-1 in myeloid cells” (Scientific Reports, 2017).

Key:
Format in all cases: cell-based
HIV-1-GFP [1] = assay: Anti-HIV-1 activity in THP-1 cells with or without Vpx transduction
Method: Antiviral assays were further performed in monocytoid cells transduced with YFP-expressing VLPs containing WT SAMHD1, HD206-7AA or Vpx. Briefly, U937 cells (6 × 10^5 cells/mL) were transduced with WT SAMHD1-YFP or HD206-7AA-YFP VLPs by spinoculation at 800 × g for 90 min in the presence of 1 μg/mL polybrene. Similarly, THP-1 cells (6 × 10^5 cells/mL) were transduced with Vpx-YFP VLPs by spinoculation at 800 × g for 90 min in the presence of 1 μg/mL polybrene. Cells were incubated at 37 °C in 5% CO2 and after 72 h, PMA^+ cells (6 × 10^5 cells/mL) were treated with 100 nM PMA and PMA^− cells (7.5 × 10^4 cells/mL) were left untreated. Cells were then incubated at 37 °C in 5% CO2 for 48 h. Nucleoside analogues were added at increasing concentrations (0–200 μM; except CFB, 0–1.6 μM) and cells were further incubated for 48 h. PMA^− cells were then infected with HIV-1-GFP by spinoculation at 800 × g for 90 min in the presence of 1 μg/mL polybrene, PMA^+ cells were infected with HIV-1-GFP in the presence of 1 μg/mL polybrene only. Cells were incubated for 72 h at 37 °C in 5% CO2 and then analysed by two-colour flow cytometry using a Fortessa X20 analyser (BD Biosciences). Data were analysed using the FlowJo software suite.
(§1) The cytotoxic concentration of nucleoside analogue that inhibits cell viability by 50% (CC50) and the effective concentration of nucleoside analogue that inhibits infection of cells by 50% (EC50) were calculated for each independent experiment by non-linear regression using GraphPad Prism v6.00 for Windows (GraphPad Software, San Diego, CA). Non-ambiguous values were subjected to a replicate test to calculate confidence intervals of 95% (95% CI). CC50 and EC50 values were determined for at least two independent experiments for each nucleoside analogue and a selectivity index (SI) also calculated, (SI = CC50/EC50). EC50 values for each replicate were used to perform an unpaired two-tailed t-test to determine significant differences between U937 cells expressing SAMHD1 wt or HD206-7AA mutant and THP-1 cells expressing Vpx or untransduced cells. P values of <0.005 were considered statistically significant.

[2] = Cytotoxicity, live cells by flow cytometry, U937 cells (PMA−/PMA+); conditions: human
Method: (§2) H9, Jurkat and undifferentiated U937 and THP-1 (PMA^−) cells (6 × 10^5 cells/mL) were treated with increasing concentrations of nucleoside analogues (0–200 μM; except CFB, 0–1.6 μM) and incubated at 37 °C in 5% CO2 for 48 h. Medium was then replaced and cells were further incubated for 72 h. Non-dividing U937 and THP-1 (PMA^+) cells (6 × 10^5 cells/mL) were differentiated by addition of 100 nM phorbol-12-myristate-13-acetate (PMA^+) for 48 h and then treated with increasing concentrations of nucleoside analogues as described above. The percentage of live cells was determined by flow cytometry using Live/Dead fixable blue-fluorescent dyes (Invitrogen) and a Fortessa X20 analyser (BD Biosciences). Data were analysed using the FlowJo software suite.
as §1

U937 cells = assay: as above; conditions: human, 48 h
Method: as §2, §1

[3] = Cytotoxicity, live cells by flow cytometry, Jurkat cells; conditions: human
Method: as §2, §1

[4] = Cytotoxicity, live cells by flow cytometry, THP-1 cells (PMA−/PMA+); conditions: human
Method: as §2, §1

THP-1 cells = assay: as above; conditions: human, 48 h
Method: as §2, §1

[5] = Cytotoxicity, live cells by flow cytometry, H9 cells; conditions: human
Method: as §2, §1

HIV-1-GFP [6] = assay: microbe, parasite or virus in culture
Method: H9 and Jurkat cells (6 × 10^5 cells/mL) were treated with increasing concentrations of nucleoside analogues (0–200 μM; except CFB, 0–1.6 μM) and incubated for 4 h at 37 °C in 5% CO2. Cells were then infected with HIV-1-GFP by spinoculation at 800 × g for 90 min in the presence of 1 μg/mL polybrene, and further incubated at 37 °C in 5% CO2 for 72 h. Undifferentiated U937 and THP-1 (PMA^−) cells (6 × 10^5 cells/mL) were treated with increasing concentrations of nucleoside analogues (0–200 μM; except CFB, 0–1.6 μM) and incubated at 37 °C in 5% CO2 for 48 h. Cells were then infected with HIV-1-GFP by spinoculation at 800 × g for 90 min in the presence of 1 μg/mL polybrene, and further incubated at 37 °C in 5% CO2 for 72 h. Non-dividing U937 and THP-1 (PMA^+) cells (6 × 10^5 cells/mL) were differentiated by addition of 100 nM PMA (PMA^+) for 48 h and treated with increasing concentrations of nucleoside analogues as described above. Cells were then infected with HIV-1-GFP in the presence of 1 μg/mL polybrene and further incubated at 37 °C in 5% CO2 for 72 h. The percentage of GFP^+cells was determined by one-colour flow cytometry using a Fortessa X20 analyser (BD Biosciences) and the data analysed using the FlowJo software suite.
Non-ambiguous values were subjected to a replicate test to calculate confidence intervals of 95% (95% CI). CC50 and EC50 values were determined for at least two independent experiments for each nucleoside analogue and a selectivity index (SI) also calculated, (SI = CC50/EC50). EC50 values for each replicate were used to perform an unpaired two-tailed t-test to determine significant differences between U937 cells expressing SAMHD1 wt or HD206-7AA mutant and THP-1 cells expressing Vpx or untransduced cells. P values of <0.005 were considered statistically significant.

[7] = Human immunodeficiency virus 1, THP-1, read-out: EC50 [95% CI], THP1 PMA+, Vpx+
[8] = Human immunodeficiency virus 1, THP-1, read-out: EC50 [95% CI], THP1 PMA+, Vpx−
[9] = Human immunodeficiency virus 1, THP-1, read-out: EC50 [95% CI], THP1 PMA−, Vpx+
[10] = Human immunodeficiency virus 1, THP-1, read-out: EC50 [95% CI], THP1 PMA−, Vpx−
[11] = Human immunodeficiency virus 1, THP-1, read-out: EC50 [95% CI], THP1 PMA+
[12] = Human immunodeficiency virus 1, THP-1, read-out: EC50 [95% CI], THP1 PMA−
[13] = Human immunodeficiency virus 1, U-937, read-out: EC50 [95% CI], U937 PMA+
[14] = Human immunodeficiency virus 1, U-937, read-out: EC50 [95% CI], U937 PMA−

SMILES	EC50 (HIV-1-GFP [1]; [7])	EC50 (HIV-1-GFP [1]; [8])	EC50 (HIV-1-GFP [1]; [9])	EC50 (HIV-1-GFP [1]; [10])	Fold (EC50 Vpx+ vs Vpx−) (HIV-1-GFP [1]; THP1 PMA+)	CC50 at 48 h [2]	CC50 (U937 cells)	CC50 at 48 h [3]	CC50 at 48 h [4]	CC50 (THP-1 cells)	CC50 at 48 h [5]	EC50 (HIV-1-GFP [6]; [11])	EC50 (HIV-1-GFP [6]; [12])	EC50 (HIV-1-GFP [6]; [13])	EC50 (HIV-1-GFP [6]; [14])	SI, selectivity index CC50/EC50 (HIV-1-GFP [6]; THP-1 PMA+)	Fold (EC50 Vpx+ vs Vpx−) (HIV-1-GFP [1]; THP1 PMA−)	SI, selectivity index CC50/EC50 (HIV-1-GFP [6]; THP-1 PMA−)	SI, selectivity index CC50/EC50 (HIV-1-GFP [6]; U937 PMA+)	SI, selectivity index CC50/EC50 (HIV-1-GFP [6]; U937 PMA−)	other results
Nc1nc(O)c2ncn(COC(CO)CO)c2n1 [GCV, 2′-Nor-2′-deoxyguanosine]	> 200 µM	0.632 µM	> 200 µM	> 200 µM	>316 fold	> 200 µM	> 200 µM	> 200 µM	> 200 µM	> 200 µM	> 200 µM	0.367 µM	> 200 µM	> 200 µM	> 200 µM	> 545	–	–	–	–	–
Cc1ccnc2c1NC(=O)c1cccnc1N2C1CC1 [NVP, Nevirapine]	0.235 µM	0.223 µM	0.292 µM	0.244 µM	1 fold	–	–	–	–	–	–	0.219 µM	0.369 µM	0.118 µM	0.505 µM	> 913	1 fold	> 542	> 1695	> 396	CC50 at 48 h ([2]; PMA-differentiated, non-dividing U937 cells (PMA+), U937 PMA+, read-out: CC50): > 200 µM; CC50 at 48 h ([2]; undifferentiated U937 cells (PMA−), U937 PMA−, read-out: CC50): > 200 µM; CC50 at 48 h ([3]; Jurkat cells, read-out: CC50): > 200 µM; CC50 at 48 h ([4]; PMA-differentiated, non-dividing THP-1 cells (PMA+), THP-1 PMA+, read-out: CC50): > 200 µM; CC50 at 48 h ([4]; undifferentiated THP-1 cells (PMA−), THP-1 PMA−, read-out: CC50): > 200 µM; CC50 at 48 h ([5]; H9 cells, read-out: CC50): > 200 µM
Nc1nc2c(ncn2COCCO)c(=O)[nH]1 [ACV, Acycloguanosine]	29.6 µM	1.08 µM	> 200 µM	> 200 µM	27 fold	> 200 µM	> 200 µM	> 200 µM	> 200 µM	> 200 µM	> 200 µM	0.657 µM	> 200 µM	52.2 µM	> 200 µM	> 304	–	–	> 4	–	–
Cc1cn([C@H]2C=C[C@@H](CO)O2)c(=O)[nH]c1=O [d4T, 2′,3′-didehydro-2′,3′-dideoxythymidine]	52.2 µM	1.49 µM	13.3 µM	4.39 µM	35 fold	> 200 µM	> 200 µM	> 200 µM	> 200 µM	> 200 µM	> 200 µM	3.95 µM	6.21 µM	7.04 µM	6.55 µM	> 51	–	> 32	> 28	> 31	fold increase of anti-HIV-1 activity in PMA+ over PMA− cells (HIV-1-GFP [6]; THP-1): 2 fold
Cc1nnc(C(=O)NC(C)(C)c2nc(C(=O)NCc3ccc(F)cc3)c(O)c(=O)n2C)o1 [RAL, Raltegravir]	0.037 µM	0.038 µM	0.043 µM	0.035 µM	1 fold	–	–	–	–	–	–	0.037 µM	0.044 µM	0.063 µM	0.013 µM	> 5405	1 fold	> 4545	> 3175	> 15385	CC50 at 48 h ([2]; U937 PMA+, read-out: CC50): > 200 µM; CC50 at 48 h ([2]; U937 PMA−, read-out: CC50): > 200 µM; CC50 at 48 h ([3]; Jurkat cells, read-out: CC50): > 200 µM; CC50 at 48 h ([4]; THP-1 PMA+, read-out: CC50): > 200 µM; CC50 at 48 h ([4]; THP-1 PMA−, read-out: CC50): > 200 µM; CC50 at 48 h ([5]; H9 cells, read-out: CC50): > 200 µM
